Tests used:
Mus musculus = assay: Antiathritis activity in anticollagen antibody-induced arthritis BALB/c mouse model assessed as reduction in LPS-induced paw swelling at 5 mg/kg, po qd followed by LPS addition on day 3 measured after 11 days relative to control; format: functional; set-up: scale not given: the % may be the effect or the level left
[1] = biological target: T1, Tyrosine-protein kinase BTK (Homo sapiens, UniProt Q06187); assay: Inhibition of BTK in human Ramos-B cells assessed as suppression of BCR/anti-IgM-stimulated Ca2+ flux after 1 hr incubation in dark by FLIPR1 assay
T1 sequence (Q06187 whole entry): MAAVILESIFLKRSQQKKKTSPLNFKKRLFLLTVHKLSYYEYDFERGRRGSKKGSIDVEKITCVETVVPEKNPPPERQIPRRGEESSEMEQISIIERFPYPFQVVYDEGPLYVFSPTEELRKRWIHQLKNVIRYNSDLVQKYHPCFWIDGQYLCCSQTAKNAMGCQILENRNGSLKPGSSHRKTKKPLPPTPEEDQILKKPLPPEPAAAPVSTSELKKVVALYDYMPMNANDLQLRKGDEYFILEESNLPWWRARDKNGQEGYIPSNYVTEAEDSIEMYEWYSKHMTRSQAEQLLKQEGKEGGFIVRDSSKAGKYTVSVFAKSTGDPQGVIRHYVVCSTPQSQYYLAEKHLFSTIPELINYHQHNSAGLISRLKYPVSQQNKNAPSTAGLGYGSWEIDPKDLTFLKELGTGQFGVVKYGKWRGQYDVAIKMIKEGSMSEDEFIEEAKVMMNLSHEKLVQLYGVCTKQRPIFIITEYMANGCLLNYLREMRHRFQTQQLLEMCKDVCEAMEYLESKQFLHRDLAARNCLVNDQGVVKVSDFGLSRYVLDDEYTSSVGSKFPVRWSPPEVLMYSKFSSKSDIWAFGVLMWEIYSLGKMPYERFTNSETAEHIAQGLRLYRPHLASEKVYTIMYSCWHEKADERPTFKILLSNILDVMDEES

[2] = Permeability of the compound at pH 5.5 by PAMPA assay; format: ADME; settings: read-out: permeability
[3] = Protein binding in rat plasma; format: ADME, cell-free; settings: read-out: PPB (converted)
[4] = Clearance in cynomolgus monkey at 2 mg/kg, iv; format: ADME, organism-based, Macaca fascicularis; settings: in vivo
[5] = AUC in cynomolgus monkey at 4 mg/kg, po; format: ADME, organism-based, Macaca fascicularis; settings: in vivo
[6] = Oral bioavailability in rat at 5 mg/kg; format: ADME, organism-based; settings: in vivo
[7] = Distribution coefficient, log D of the compound at pH 7.0 by HPLC method; format: physicochemical; settings: octanol/water
[8] = Protein binding in mouse plasma; format: ADME, cell-free; settings: read-out: PPB (converted)
[9] = Volume of distribution at steady state in mouse at 3 mg/kg, iv; format: ADME, organism-based; settings: in vivo, read-out: Vdss
Cytochrome P450 2B6 = biological target: T2, Cytochrome P450 2B6 (Homo sapiens, UniProt P20813); assay: Inhibition of CYP2B6 (unknown origin); format: ADME
T2 sequence (P20813 whole entry): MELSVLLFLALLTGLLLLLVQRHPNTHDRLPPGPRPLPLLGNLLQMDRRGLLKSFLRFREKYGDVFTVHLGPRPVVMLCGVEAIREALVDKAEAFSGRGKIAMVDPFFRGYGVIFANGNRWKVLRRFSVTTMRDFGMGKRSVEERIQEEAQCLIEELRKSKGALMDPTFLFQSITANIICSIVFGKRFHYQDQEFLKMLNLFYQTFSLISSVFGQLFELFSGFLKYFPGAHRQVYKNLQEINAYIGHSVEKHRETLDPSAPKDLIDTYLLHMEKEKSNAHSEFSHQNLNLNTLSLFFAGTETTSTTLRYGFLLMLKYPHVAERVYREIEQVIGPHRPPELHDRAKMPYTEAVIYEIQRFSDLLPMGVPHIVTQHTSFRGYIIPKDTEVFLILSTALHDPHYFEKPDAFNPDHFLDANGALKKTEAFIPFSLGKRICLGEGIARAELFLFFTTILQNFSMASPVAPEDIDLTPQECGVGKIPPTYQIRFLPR

Cytochrome P450 2C19 = Cytochrome P450 2C19 (Homo sapiens, UniProt P33261); assay: Inhibition of CYP2C19 (unknown origin); format: ADME
Sequence of Cytochrome P450 2C19 (P33261 whole entry): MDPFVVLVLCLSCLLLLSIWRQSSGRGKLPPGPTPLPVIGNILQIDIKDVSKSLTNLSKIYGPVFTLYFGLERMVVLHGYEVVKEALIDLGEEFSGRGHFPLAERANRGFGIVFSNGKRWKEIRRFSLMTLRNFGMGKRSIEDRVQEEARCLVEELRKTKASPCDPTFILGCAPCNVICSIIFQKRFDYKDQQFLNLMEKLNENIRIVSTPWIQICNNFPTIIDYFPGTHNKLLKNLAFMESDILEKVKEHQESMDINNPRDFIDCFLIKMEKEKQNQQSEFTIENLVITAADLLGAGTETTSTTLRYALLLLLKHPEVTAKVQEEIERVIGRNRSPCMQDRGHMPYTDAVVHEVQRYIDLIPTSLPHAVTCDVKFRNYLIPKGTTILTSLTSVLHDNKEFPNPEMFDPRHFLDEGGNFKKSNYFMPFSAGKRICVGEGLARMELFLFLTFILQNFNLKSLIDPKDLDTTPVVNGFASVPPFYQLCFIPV

[10] = Tmax in dog at 2 mg/kg, po; format: ADME, organism-based, Canis lupus familiaris; settings: in vivo
Cytochrome P450 2C8 = biological target: T3, Cytochrome P450 2C8 (Homo sapiens, UniProt P10632); assay: Inhibition of CYP2C8 (unknown origin); format: ADME
T3 sequence (P10632 whole entry): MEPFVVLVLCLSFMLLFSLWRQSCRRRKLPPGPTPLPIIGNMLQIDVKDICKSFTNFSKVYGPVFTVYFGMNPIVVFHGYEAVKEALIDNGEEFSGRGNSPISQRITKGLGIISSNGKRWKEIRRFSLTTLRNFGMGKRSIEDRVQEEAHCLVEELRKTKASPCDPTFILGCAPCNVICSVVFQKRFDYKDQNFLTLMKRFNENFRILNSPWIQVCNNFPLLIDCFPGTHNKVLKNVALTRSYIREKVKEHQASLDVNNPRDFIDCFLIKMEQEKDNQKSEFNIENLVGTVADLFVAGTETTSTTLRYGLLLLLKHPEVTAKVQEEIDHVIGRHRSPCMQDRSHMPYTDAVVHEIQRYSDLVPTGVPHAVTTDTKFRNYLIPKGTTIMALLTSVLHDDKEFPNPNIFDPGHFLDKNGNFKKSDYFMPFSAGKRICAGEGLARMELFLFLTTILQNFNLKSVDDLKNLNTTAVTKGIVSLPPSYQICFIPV

[11] = Protein binding in human serum; format: ADME; settings: read-out: PPB (converted)
[12] = biological target: T1, Tyrosine-protein kinase BTK; assay: Inhibition of BTK in human PBM cells assessed as suppression of FCRgammaR/immune complex-stimulated TNFalpha production; format: cell-based
Cytochrome P450 1A2 = biological target: T4, Cytochrome P450 1A2 (Homo sapiens, UniProt P05177); assay: Inhibition of CYP1A2 (unknown origin); format: ADME
T4 sequence (P05177 whole entry): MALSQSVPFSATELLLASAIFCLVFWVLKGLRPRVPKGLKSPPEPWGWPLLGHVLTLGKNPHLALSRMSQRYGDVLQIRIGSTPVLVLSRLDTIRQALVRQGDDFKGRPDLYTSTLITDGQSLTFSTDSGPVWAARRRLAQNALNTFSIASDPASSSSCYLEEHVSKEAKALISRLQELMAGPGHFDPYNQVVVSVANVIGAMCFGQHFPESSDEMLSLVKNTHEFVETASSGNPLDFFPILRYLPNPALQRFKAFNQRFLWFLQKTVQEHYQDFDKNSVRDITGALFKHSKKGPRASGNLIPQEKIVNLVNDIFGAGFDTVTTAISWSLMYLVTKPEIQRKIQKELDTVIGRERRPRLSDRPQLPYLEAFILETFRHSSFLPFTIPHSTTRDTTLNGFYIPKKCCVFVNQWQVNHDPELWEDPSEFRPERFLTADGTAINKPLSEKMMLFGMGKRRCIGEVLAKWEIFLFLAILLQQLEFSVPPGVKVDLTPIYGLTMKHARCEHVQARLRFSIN

[13] = MRT in cynomolgus monkey at 2 mg/kg, iv; format: ADME, organism-based, Macaca fascicularis; settings: in vivo
Cytochrome P450 2D6 = Cytochrome P450 2D6 (Homo sapiens, UniProt P10635); assay: Inhibition of CYP2D6 (unknown origin); format: ADME
Sequence of Cytochrome P450 2D6 (P10635 whole entry): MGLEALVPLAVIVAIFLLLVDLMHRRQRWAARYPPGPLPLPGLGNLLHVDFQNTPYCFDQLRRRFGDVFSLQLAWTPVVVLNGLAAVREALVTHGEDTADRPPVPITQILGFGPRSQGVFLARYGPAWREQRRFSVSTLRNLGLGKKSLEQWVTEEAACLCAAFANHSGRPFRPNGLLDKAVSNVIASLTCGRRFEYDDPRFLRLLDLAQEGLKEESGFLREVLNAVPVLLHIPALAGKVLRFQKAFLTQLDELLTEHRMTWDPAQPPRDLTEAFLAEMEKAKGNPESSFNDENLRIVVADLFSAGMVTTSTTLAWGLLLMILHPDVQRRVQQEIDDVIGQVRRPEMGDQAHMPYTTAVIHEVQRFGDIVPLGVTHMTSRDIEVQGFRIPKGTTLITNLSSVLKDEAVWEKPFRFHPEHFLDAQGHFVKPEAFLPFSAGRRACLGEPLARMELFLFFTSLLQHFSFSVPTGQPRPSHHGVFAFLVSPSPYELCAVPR

[14] = Bioavailability in mouse at 10 mg/kg; format: ADME, organism-based; settings: in vivo
[15] = AUC in rat at 5 mg/kg, po; format: ADME, organism-based; settings: in vivo
[16] = biological target: T1, Tyrosine-protein kinase BTK; assay: Inhibition of BTK in human whole blood assessed as suppression of BCR/anti-IgM/IgG-stimulated CD69 surface expression after 18 hrs with agitation by FITC-staining based FACS analysis; format: tissue-based
[17] = Drug uptake in rat brain relative to plasma concentration; format: ADME

Cc1c(-c2c(F)cc(C(N)=O)c3[nH]c4c(c23)CC[C@H](C(C)(C)O)C4)cccc1-n1c(=O)c2cccc(F)c2n(C)c1=O (atropisomer R) [BMS-986142]
Activity (Mus musculus): 72% | IC50 [1]: 9 nM | Papp [2]: 67.3 ×10⁻⁶ cm/s | fraction unbound [3]: 0.017 | clearance [4]: 10 mL/min/kg | AUC [5]: 5 µM·h | bioavailability [6]: 67% | logD [7]: 4.06 | fraction unbound [8]: 0.015 | Vd [9]: 1.2 L/kg | IC50 (Cytochrome P450 2B6): > 40000 nM | IC50 (Cytochrome P450 2C19): 32200 nM | Tmax [10]: 3 h | IC50 (Cytochrome P450 2C8): 2600 nM | fraction unbound [11]: 0.009 | IC50 [12]: 3 nM | IC50 (Cytochrome P450 1A2): > 40000 nM | MRT [13]: 4.7 h | IC50 (Cytochrome P450 2D6): > 40000 nM | bioavailability [14]: < 4% | AUC [15]: 23 µM·h | IC50 [16]: 90 nM | Drug uptake [17]: < 5%

From ChEMBL document CHEMBL3856250, “Discovery of 6-Fluoro-5-(R)-(3-(S)-(8-fluoro-1-methyl-2,4-dioxo-1,2-dihydroquinazolin-3(4H)-yl)-2-methylphenyl)-2-(S)-(2-hydroxypropan-2-yl)-2,3,4,9-tetrahydro-1H-carbazole-8-carboxamide (BMS-986142): A Reversible Inhibitor of Bruton's Tyrosine Kinase (BTK) Conformationally Constrained by Two …” (J Med Chem, 2016)
